According to the supplement of paper PMC6045584:
± gives the standard deviation of the averaged measurements.

Key:
[1] = compound: CO[C@H]1C[C@@H]2CC[C@@H](C)[C@@](O)(O2)C(=O)C(=O)N2CCCC[C@H]2C(=O)O[C@H]([C@H](C)C[C@@H]2CC[C@@H](OCCO)[C@H](OC)C2)CC(=O)[C@H](C)/C=C(\C)[C@@H](O)[C@@H](OC)C(=O)[C@H](C)C[C@H](C)/C=C/C=C/C=C/1C [EVEROLIMUS]; assay: surviving fraction relative to DMSO-only wells; higher = less growth inhibition; details: exposure time: 5 days
How it was run: (§1)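 Surviving fraction is CellTiter-Glo luminescence divided by the median of wells given DMSO only. For this, log-phase tumour cell lines went into 384-well plates at 250–500 cells per well and, 24 hours later, into five days of continuous inhibitor exposure at 0.5, 1, 5, 10, 50, 100, 500 and 1000 nM. Lines were screened three times and retained only if replicate Pearson r >0.7 and median Z' >0.3.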

[2] = compound: Cc1nc(Nc2n[nH]c3c2CN(C(=O)N[C@H](CN(C)C)c2ccccc2)C3(C)C)c2sccc2n1; assay: as above; details: exposure time: 5 days
How it was run: as §1

Row | Test System | surviving fraction ([1]; 0.5 nM) | surviving fraction ([1]; 1 nM) | surviving fraction ([1]; 5 nM) | surviving fraction ([1]; 10 nM) | surviving fraction ([1]; 50 nM) | surviving fraction ([1]; 100 nM) | surviving fraction ([1]; 500 nM) | surviving fraction ([1]; 1000 nM) | surviving fraction ([2]; 0.5 nM) | surviving fraction ([2]; 1 nM) | surviving fraction ([2]; 5 nM) | surviving fraction ([2]; 10 nM) | surviving fraction ([2]; 50 nM) | surviving fraction ([2]; 100 nM) | surviving fraction ([2]; 500 nM) | surviving fraction ([2]; 1000 nM)
1 | SG27 HEADNECK | 1.1 ± 0.11 | 1.02 ± 0.019 | 0.978 ± 0.07 | 1.01 ± 0.046 | 0.871 ± 0.037 | 0.904 ± 0.11 | 0.92 ± 0.046 | 0.903 ± 0.08 | 0.936 ± 0.024 | 0.931 ± 0.029 | 0.64 ± 0.069 | 0.612 ± 0.066 | 0.408 ± 0.069 | 0.373 ± 0.053 | 0.199 ± 0.046 | 0.115 ± 0.01
2 | SG28 HEADNECK | 1.15 ± 0.028 | 1.09 ± 0.026 | 0.879 ± 0.063 | 0.8505 ± 0.005 | 0.809 ± 0.026 | 0.767 ± 0.0028 | 0.68 ± 0.0028 | 0.775 ± 0.0028 | 0.97 ± 0.064 | 1 ± 0.056 | 0.818 ± 0.009 | 0.716 ± 0.039 | 0.667 ± 0.051 | 0.523 ± 0.063 | 0.186 ± 0.0036 | 0.049 ± 0.0053
3 | SG31 HEADNECK | 0.931 ± 0.077 | 0.905 ± 0.11 | 0.638 ± 0.041 | 0.62 ± 0.01 | 0.641 ± 0.035 | 0.591 ± 0.1 | 0.539 ± 0.035 | 0.574 ± 0.047 | 0.947 ± 0.073 | 1.01 ± 0.088 | 0.671 ± 0.076 | 0.909 ± 0.17 | 0.456 ± 0.0092 | 0.609 ± 0.067 | 0.241 ± 0.024 | 0.344 ± 0.033
4 | SG32 HEADNECK | 1.22 ± 0.19 | 1.22 ± 0.15 | 1.44 ± 0.47 | 1.01 ± 0.14 | 0.813 ± 0.052 | 0.601 ± 0.082 | 0.556 ± 0.025 | 0.499 ± 0.026 | 1.04 ± 0.29 | 0.756 ± 0.027 | 0.363 ± 0.013 | 0.247 ± 0.017 | 0.206 ± 0.014 | 0.148 ± 0.021 | 0.0707 ± 0.012 | 0.041 ± 0.011
5 | SG43 HEADNECK | 1.18 ± 0.069 | 0.963 ± 0.053 | 0.943 ± 0.035 | 0.833 ± 0.13 | 0.874 ± 0.073 | 0.872 ± 0.13 | 0.908 ± 0.13 | 0.882 ± 0.071 | 1.23 ± 0.11 | 1.11 ± 0.22 | 0.921 ± 0.13 | 0.784 ± 0.34 | 1.14 ± 0.2 | 0.959 ± 0.16 | 0.971 ± 0.055 | 1.35 ± 0.2
6 | SIHA CERVIX | 0.822 ± 0.043 | 0.741 ± 0.04 | 0.64 ± 0.02 | 0.973 ± 0.61 | 0.605 ± 0.061 | 0.592 ± 0.049 | 0.498 ± 0.044 | 0.499 ± 0.008 | 0.827 ± 0.039 | 0.689 ± 0.052 | 0.555 ± 0.023 | 0.487 ± 0.026 | 0.419 ± 0.0098 | 0.391 ± 0.0081 | 0.262 ± 0.031 | 0.146 ± 0.017
7 | SJSA1 BONE | 1.58 ± 0.029 | 1.72 ± 0.099 | 1.5 ± 0.24 | 1.63 ± 0.07 | 1.38 ± 0.023 | 1.7 ± 0.048 | 1.38 ± 0.26 | 1.73 ± 0.11 | 0.972 ± 0.02 | 0.901 ± 0.011 | 0.747 ± 0.018 | 0.696 ± 0.057 | 0.448 ± 0.015 | 0.393 ± 0.025 | 0.289 ± 0.007 | 0.243 ± 0.0072
8 | SKBR3 BREAST | 0.615 ± 0.048 | 0.561 ± 0.009 | 0.414 ± 0.021 | 0.389 ± 0.015 | 0.37 ± 0.03 | 0.316 ± 0.016 | 0.312 ± 0.021 | 0.295 ± 0.018 | 0.895 ± 0.11 | 0.834 ± 0.079 | 0.49 ± 0.027 | 0.498 ± 0.026 | 0.454 ± 0.063 | 0.419 ± 0.045 | 0.344 ± 0.021 | 0.1 ± 0.011
9 | SNU475 LIVER | 0.489 ± 0.032 | 0.447 ± 0.028 | 0.41 ± 0.042 | 0.364 ± 0.018 | 0.381 ± 0.028 | 0.35 ± 0.01 | 0.303 ± 0.0065 | 0.343 ± 0.017 | 0.974 ± 0.027 | 0.918 ± 0.067 | 0.724 ± 0.06 | 0.633 ± 0.032 | 0.509 ± 0.0096 | 0.467 ± 0.024 | 0.393 ± 0.015 | 0.244 ± 0.015
10 | SUM44 BREAST | 0.853 ± 0.24 | 0.723 ± 0.16 | 0.718 ± 0.12 | 0.713 ± 0.12 | 0.819 ± 0.25 | 0.804 ± 0.16 | 0.723 ± 0.17 | 0.711 ± 0.11 | 1.08 ± 0.03 | 1.05 ± 0.065 | 1 ± 0.039 | 0.972 ± 0.041 | 0.983 ± 0.059 | 0.929 ± 0.038 | 0.735 ± 0.023 | 0.541 ± 0.023
11 | SUM149 BREAST | 0.844 ± 0.035 | 0.671 ± 0.098 | 0.536 ± 0.068 | 0.523 ± 0.079 | 0.462 ± 0.039 | 0.411 ± 0.04 | 0.403 ± 0.023 | 0.335 ± 0.03 | 0.863 ± 0.011 | 1.01 ± 0.02 | 0.178 ± 0.014 | 0.365 ± 0.037 | 0.124 ± 0.0069 | 0.145 ± 0.011 | 0.0783 ± 0.0083 | 0.117 ± 0.013
12 | SUM149.B1*.S BREAST | 1.11 ± 0.032 | 1.06 ± 0.034 | 1.04 ± 0.039 | 0.754 ± 0.082 | 0.696 ± 0.16 | 0.681 ± 0.17 | 0.698 ± 0.13 | 0.653 ± 0.13 | 1.05 ± 0.021 | 1.04 ± 0.013 | 0.473 ± 0.02 | 0.817 ± 0.017 | 0.279 ± 0.032 | 0.748 ± 0.032 | 0.24 ± 0.0095 | 0.691 ± 0.046
13 | SUM159 BREAST | 1.08 ± 0.023 | 1.09 ± 0.024 | 0.921 ± 0.047 | 0.851 ± 0.04 | 0.852 ± 0.06 | 0.807 ± 0.014 | 0.808 ± 0.022 | 0.784 ± 0.021 | 1.13 ± 0.2 | 1.15 ± 0.2 | 1.15 ± 0.21 | 1.1 ± 0.18 | 0.554 ± 0.027 | 0.407 ± 0.026 | 0.369 ± 0.028 | 0.292 ± 0.0093
14 | SYO1 SYNOVIAL | 0.8921 ± 0.0089 | 0.834 ± 0.011 | 0.661 ± 0.016 | 0.602 ± 0.036 | 0.508 ± 0.011 | 0.508 ± 0.0081 | 0.484 ± 0.036 | 0.45 ± 0.022 | 0.65 ± 0.017 | 0.486 ± 0.01 | 0.269 ± 0.023 | 0.214 ± 0.0035 | 0.166 ± 0.016 | 0.129 ± 0.013 | 0.0548 ± 0.0036 | 0.0347 ± 0.0023
15 | T47D BREAST | 0.892 ± 0.044 | 0.815 ± 0.047 | 0.686 ± 0.041 | 0.637 ± 0.021 | 0.646 ± 0.021 | 0.664 ± 0.038 | 0.6 ± 0.018 | 0.603 ± 0.022 | 1.16 ± 0.034 | 1.12 ± 0.025 | 0.845 ± 0.033 | 0.879 ± 0.023 | 0.887 ± 0.032 | 0.87 ± 0.014 | 0.776 ± 0.013 | 0.528 ± 0.04
16 | U2OS BONE | 0.954 ± 0.025 | 0.88 ± 0.039 | 0.7943 ± 0.0025 | 0.706 ± 0.039 | 0.678 ± 0.011 | 0.651 ± 0.029 | 0.633 ± 0.012 | 0.568 ± 0.03 | 0.974 ± 0.038 | 0.901 ± 0.058 | 0.631 ± 0.016 | 0.453 ± 0.025 | 0.188 ± 0.025 | 0.142 ± 0.015 | 0.075 ± 0.0027 | 0.0633 ± 0.0015
17 | VCAP PROSTATE | 1.04 ± 0.079 | 1.04 ± 0.052 | 0.941 ± 0.1 | 0.984 ± 0.032 | 0.891 ± 0.15 | 0.898 ± 0.027 | 0.758 ± 0.078 | 0.766 ± 0.056 | 0.665 ± 0.11 | 0.496 ± 0.006 | 0.428 ± 0.025 | 0.398 ± 0.025 | 0.451 ± 0.084 | 0.397 ± 0.022 | 0.245 ± 0.036 | 0.0417 ± 0.0063
18 | VP229 BREAST | 0.812 ± 0.056 | 0.664 ± 0.048 | 0.645 ± 0.086 | 0.566 ± 0.051 | 0.584 ± 0.01 | 0.541 ± 0.058 | 0.507 ± 0.061 | 0.511 ± 0.045 | 1.23 ± 0.085 | 1.15 ± 0.18 | 0.684 ± 0.099 | 0.597 ± 0.089 | 0.484 ± 0.055 | 0.386 ± 0.036 | 0.301 ± 0.031 | 0.311 ± 0.026
19 | YAMATO SYNOVIAL | 1.07 ± 0.084 | 1.06 ± 0.074 | 1.06 ± 0.02 | 0.633 ± 0.022 | 0.5 ± 0.021 | 0.454 ± 0.0076 | 0.401 ± 0.014 | 0.473 ± 0.03 | 0.784 ± 0.03 | 1.19 ± 0.074 | 0.432 ± 0.036 | 1.35 ± 0.091 | 0.354 ± 0.0056 | 1.42 ± 0.17 | 0.353 ± 0.024 | 1.39 ± 0.074
20 | ZR751 BREAST | 0.964 ± 0.017 | 0.715 ± 0.031 | 0.502 ± 0.054 | 0.5 ± 0.068 | 0.337 ± 0.014 | 0.353 ± 0.015 | 0.322 ± 0.038 | 0.339 ± 0.0066 | 0.872 ± 0.058 | 0.818 ± 0.052 | 0.575 ± 0.056 | 0.515 ± 0.0069 | 0.427 ± 0.029 | 0.463 ± 0.026 | 0.492 ± 0.041 | 0.462 ± 0.037
